In patent publication US9789096B2, “Methods and compositions for selective and targeted cancer therapy” (Board of Regents of the University of Texas System, priority 2013, dated 2017):
Like-named read-outs stand apart in the source and are kept apart here.

Tests used:
[1] = system: H2122; test: Cell viability dose-response, H2122; format: cell-based, human; settings: Homo sapiens
Procedure: (§1) FIG. 6A. […] Cell viability is plotted vs. compound concentration. Compound was added to cells plated at 15% confluence in 96-well plates in RPMI-1640 media supplemented with 5% Fetal Bovine Serum and 2 mM L-Glutamine. After 4 days of incubation, ATP levels were measured using Cell Titer Glo (Promega). Data are presented as the average of 2 replicates ±SEM.
(§2) Selectivity may be measured by the half maximal inhibitory concentration (IC50), which, as used herein, is a measure of the effectiveness of a compound in killing cells. This quantitative measure indicates how much of a particular compound is needed to kill a particular cell population by half (e.g., as indicated by the amount of ATP). […] The IC50 can be determined by constructing a dose-response curve. The lower the IC50, the higher the potency, and the greater the difference between IC50 values for different cell lines (e.g., sensitive lines vs. insensitive lines, and sensitive lines vs. normal lines) the greater the selectivity. […]
(§3) With this information, we synthesized and tested a series of small molecules derived in conception from the oxalamide and chromone scaffold including N-acyl ureas, as shown in Tables 6-8. Each compound was tested in a 12-point dose-response study starting at 50 micromolar and decreasing in 3-fold increments to sub-nanomolar concentrations, in duplicate. Additionally, one or more additional cell line was tested in the same way.

[2] = system: H1819; test: Cell viability dose-response, H1819; format: cell-based, human; settings: Homo sapiens
Procedure: as §1, §2, §3

[3] = NCI-H2122, 12-point dose-response starting at 50 micromolar, 3-fold increments, in duplicate, read-out: toxicity data, H2122
[4] = NCI-H1819, 12-point dose-response starting at 50 micromolar, 3-fold increments, in duplicate, read-out: toxicity data, H1819
[5] = NCI-H2122, Tables 3 and 4, read-out: IC50 (uM) vs indicated non-small cell lung cancer cell line H2122
[6] = NCI-H1819, Tables 3 and 4, read-out: IC50 (uM) vs indicated non-small cell lung cancer cell line H1819

Row | SMILES | IC50 [1, 3] | IC50 [2, 4] | further results
1 | COc1ccc(CCNC(=O)C(=O)Nc2cncc(Cl)c2)cc1 [SW208139-1-A] | 5.88 µM | ≥ 49.5 µM | 
2 | COc1ccc2nc(NC(=O)c3ccc(C(=O)c4cccnc4)cc3)sc2c1 [SW203733] |  |  | IC50 [1, 5]: 0.017 µM
3 | COc1ccc(CCNC(=O)C(=O)O)cc1 [SW208132-1-A] | ≥ 49.5 µM | ≥ 49.5 µM | 
4 | COc1ccc(CCNC(=O)C(=O)Nc2ccc(F)c(Cl)c2)cc1 [SW206860-1-A] | 0.738 µM | ≥ 49.5 µM | 
5 | COc1ccc(CCNC(=O)C(=O)Nc2ccc(F)cc2Cl)cc1 [SW206863-1-a] | ≥ 49.5 µM | ≥ 49.5 µM | 
6 | C#CCOCCOCCOCCOCCOc1ccc2nc(NC(=O)c3ccc(C(=O)c4ccccc4)cc3)sc2c1 [SW203734] |  |  | IC50 [1, 5]: 0.939 µM
7 | COc1ccc(CCNC(=O)c2nc3ccccc3c(=O)[nH]2)cc1 [SW208063-1-A] | ≥ 49.5 µM | ≥ 49.5 µM | 
8 | COc1ccc(CCNC(=O)C(=O)Nc2ccc(Cl)c(OC)c2)cc1 [SW206973-1] | ≥ 49.5 µM | 49 µM | 
9 | COc1ccc(CCNC(=O)C(=O)Oc2ccccc2)cc1 [SW208147-1-A] | 2.07 µM | ≥ 49.5 µM | 
10 | COc1ccc(CCNC(=O)C(=O)Nc2ccc(Br)cc2Br)cc1 [SW206888-1-A] | ≥ 49.5 µM | ≥ 49.5 µM | 
11 | COc1ccc(CCNC(=O)CNc2ccc(Cl)cc2)cc1 [SW208041-1-A] | 48.4 µM | ≥ 49.5 µM | 
12 | O=c1c(Cc2cccc(C(F)(F)F)c2)coc2cc(OCc3cnn(-c4ccccc4)c3)ccc12 [SW209186-1] |  |  | AC50 ([1]; NCI-H2122, Table 8, 12-point dose-response starting at 50 micromolar): 0.047 µM; AC50 ([2]; NCI-H1819, Table 8, 12-point dose-response starting at 50 micromolar): 49.5 µM
13 | COc1ccc(CCNC(=O)C(=O)N2Cc3ccccc3C2)cc1 [SW208058-1-A] | ≥ 49.5 µM | ≥ 49.5 µM | 
14 | COc1ccc(CCNC(=O)C(=O)N2CCc3ccccc32)cc1 [SW208059-1-A] | ≥ 49.5 µM | ≥ 49.5 µM | 
15 | COc1ccc(CCNC(=O)C(=O)N2CCc3ccccc3C2)cc1 [SW208060-1-A] | ≥ 49.5 µM | ≥ 49.5 µM | 
16 | COc1ccc(CCNC(=O)C(=O)Nc2ccc(C(=O)c3ccc(O)cc3)cc2)cc1 [SW208141-1-A] | ≥ 49.5 µM | ≥ 49.5 µM | 
17 | C#CCOc1ccc(C(=O)c2ccc(NC(=O)C(=O)NCCc3ccc(OC)cc3)cc2)cc1 [SW208108-1-A] | 0.028 µM | ≥ 49.5 µM | 

Row | SMILES | IC50 [1, 3] | IC50 [2, 4] | further results
18 | COc1cccc(CCNC(=O)C(=O)Nc2ccc(Cl)cc2)c1 [SW206964-1] | ≥ 49.5 µM | ≥ 49.5 µM | 
19 | COc1ccc(CCNC(=O)C(=O)Nc2ccc(Cl)c(F)c2)cc1 [SW206952-1] | 0.294 µM | ≥ 49.5 µM | 
20 | COc1ccc(CCNC(=O)C(=O)Oc2ccc(Cl)cc2)cc1 [SW208148-1-A] | 7.17 µM | ≥ 49.5 µM | 
21 | COc1ccc(C(=O)c2ccc(NC(=O)C(=O)NCCc3ccc(O)cc3)cc2)cc1 [SW208117-1-A] | 0.031 µM | 15.6 µM | IC50 ([1]; NCI-H2122, Table 9, competitor, read-out: IC50 to H2122 cells): 0.0244 µM
22 | COc1ccc(CCNC(=O)c2nc3ccccc3o2)cc1 [SW208125-1-A] | 30.4 µM | ≥ 49.5 µM | 
23 | C#CCOc1ccc2nc(NC(=O)c3ccc(C(=O)c4ccc(OC)cc4)cc3)sc2c1 [SW208187] |  |  | IC50 [1, 5]: 0.288 µM; IC50 [2, 6]: 0.697 µM
24 | O=C(NCCc1cccc(Cl)c1)C(=O)Nc1ccc(Cl)cc1 [SW208037-1-A] | ≥ 49.5 µM | ≥ 49.5 µM | 
25 | COc1ccc(CCNC(=O)C(=O)Nc2cc(Cl)c(Br)c(Cl)c2)cc1 [SW206875-1-A] | 25.3 µM | 17.8 µM | 
26 | COc1ccc2nc(NC(=O)c3ccc(C(O)c4ccccn4)cc3)sc2c1 (stereo not shown) [SW203726] |  |  | IC50 [1, 5]: 0.029 µM
27 | COc1ccc(CNC(=O)NCc2ccccc2)cc1 [SW208047-1-A] | ≥ 49.5 µM | ≥ 49.5 µM | 
28 | COc1ccc(CCNC(=O)C(=O)Nc2cc(F)c(F)c(Br)c2)cc1 [SW206876-1-A] | ≥ 49.5 µM | ≥ 49.5 µM | 
29 | COc1ccc(CCNC(=O)C(=O)Nc2cccc(F)n2)cc1 [SW209136-1-A] | ≥ 49.5 µM | ≥ 49.5 µM | 
30 | COc1ccc(CCNC(=O)C(=O)Nc2ccccc2F)cc1 [SW027962-2-A] | ≥ 49.5 µM | ≥ 49.5 µM | 
31 | COc1ccc2nc(NC(=O)c3ccc([C@@H](N)c4ccccc4)cc3)sc2c1 [SW208109] |  |  | IC50 [1, 5]: 0.067 µM; IC50 [2, 6]: 7.75 µM
32 | COc1ccc(CCNC(=O)C(=O)Nc2ccccc2)cc1 [SW206967-1] | 0.456 µM | ≥ 49.5 µM | 
33 | COc1ccc(CCNC(=O)C(=O)Nc2cccc(OC)c2)cc1 [SW206871-1-A] | 0.932 µM | ≥ 49.5 µM | 
